Measured values reported in EP0239528A1, “13-Beta-carbamoyloxy-milbemicyne derivatives for fighting harmful animal and plant parasites” (CIBA-GEIGY AG, priority 1986, dated 1987).
Where two headings read alike, the source gives them in different places.

Assays:
[1] = test system: L₁-Larven von Lucilia sericata; test: B-3 action against L1 larvae in larval culture medium; assay type: in vivo; settings: 96 h, reduced concentration of 100 ppm, after 4 days, read-out: Wirkung (Mortalitätsrate)
Experimental: B-3. Wirkung gegen L₁-Larven von Lucilia sericata
1 ml einer wässrigen Suspension der zu prüfenden Aktivsubstanz werden so mit 3 ml eines speziellen Larvenzuchtmediums bei ca. 50°C vermischt, dass ein Homogenisat von wahlweise 250 ppm oder […] Wirkstoffgehalt entsteht. In jede Reagenzglas-Probe werden ca. 30 Lucilia-Larven (L₁) eingesetzt. Nach 4 Tagen wird die Mortalitätsrate bestimmt. Die Verbindungen aus den Herstellungsbeispielen zeigen bei 250 ppm eine Wirkung von 100 %, wobei die Verbindungen aus den Herstellungsbeispiele, wie z.B. E8, E6, E2, E14, E22, E28, E26, E30, E32, E34, E36 und E38, diese Wirkung auch noch bei der reduzierten Wirkstoffkonzentration von 100 ppm erzielten.

[2] = test system: Haemonchus concortus und Trichostrongylus colubriformis; test: B-5 test on nematode-infected sheep, worm egg count in faeces; assay type: in vivo, Schafen; settings: single dose 0,5 mg/kg by stomach tube or intraruminal injection
Experimental: B-5. Versuch an mit Nematoden (Haemonchus concortus und Trichostrongylus colubriformis) infizierten Schafen
Der Wirkstoff wird als Suspension formuliert mit einer Magensonde oder durch Injektion in den Pansen eines Schafes gegeben, das mit Haemonchus concortus und Trychostrongylus colubriformis künstlich infiziert worden ist. Pro Dosis werden 1 bis 3 Tiere verwendet. Jedes Schaf wird nur einmal mit einer einzigen Dosis behandelt, und zwar wahlweise mit 1 mg oder 0,5 mg/kg Körpergewicht. Die Evaluierung erfolgt durch Vergleich der Anzahl der vor und nach Behandlung im Kot der Schafe ausgeschiedenen Wurmeier.
Gleichzeitig und gleichartig infizierte aber unbehandelte Schafe dienen als Kontrolle. […] Verbindungen aus den Herstellungsbeispielen, wie. z.B. E4, E8, E14, E18, E30 bis E32, E 34 und E36, bewirkten dies auch noch bei 0,5 mg/kg.

Dermanyssus gallinae = test: B-4 miticidal action, wetting test in glass container; assay type: in vivo; settings: 72 h, observed for three days, read-out: Wirkung (Mortalität)
Experimental: B-4. Milbizide Wirkung gegen Dermanyssus gallinae
2 bis 3 ml einer Testlösung (100, 10, 1 und 0,1 ppm Aktivsubstanz) werden in einem nach oben offenen Glasbehälter gegeben und ca. 200 Milben in unterschiedlichen Entwicklungstadien in diesen Behälter eingesetzt. Der Glasbehälter wird mit einem Wattebausch verschlossen und 10 Minuten gleichmässig, bis zur vollständigen Benetzung der Milben geschüttelt. Danach wird der Behälter umgekehrt hingestellt, bis die überschüssige Testlösung von der Watte aufgesogen ist. Der Behälter wird erneut gekehrt und die behandelten Zecken zur Evaluierung der Wirksamkeit der Testsubstanzen drei Tage unter Laborbedingungen beobachtet, wobei die Mortalität als Massstab für Wirksamkeit herangezogen wird.

[3] = test system: OP-sensible Tetranychus urticae; test: B-2 action against plant-damaging acarids on bean plants; assay type: in vivo; settings: 1,6 ppm active ingredient, evaluation after seven days
Source text: B-2. Wirkung gegen pflanzenschädigende Akariden OP-sensible Tetranychus urticae
Die Primärblätter von Bohnenpflanzen (Phaseolus vulgaris) werden 16 Stunden vor dem Versuch mit einem durch T. urticae infestierten, aus einer Massenzucht stammenden Blattstück belegt. Die so mit allen Milben-Stadien infestierten Pflanzen werden nach Entfernung des Blattstücks mit einer Versuchslösung bis zur Tropfnässe besprüht, die wahlweise 0,4 ppm oder 1,6 ppm der zu prüfenden Verbindung enthält. Die Temperatur in der Gewächshauskabine beträgt ca. 25°C.
Nach sieben Tagen wird unter dem Binokular auf Prozentsatz mobiler Stadien (Adulte und Nymphen) und auf vorhandene Eier ausgewertet.

Aedes aegypti = test: B-7 larvicidal action in water; assay type: in vivo; settings: 3,3 ppm, after one day
Experimental: B-7. Larvizidwirkung gegen Aedes aegypti
Auf die Oberfläche von 150 ml Wasser, das sich in einem Behälter befindet, wird soviel einer 0,1 %igen acetonischen Lösung des Wirkstoffes pipettiert, dass Konzentrationen von wahlweise 10 ppm, 3,3 ppm und 1,6 ppm erhalten werden. Nach Verdunsten des Acetons wird der Behälter mit ca. 30-40 3 Tage alten Aedes-Larven beschickt. Nach 1, 2 und 5 Tagen wird die Mortalität geprüft.

Spodoptera littoralis = test: B-1 insecticidal stomach-poison action on sprayed cotton plants; assay type: in vivo; settings: 12,5 ppm active ingredient, after 24 hours, L1 larvae on cotton plants
Experimental: B-1. Insektizide Frassgift-Wirkung bei Spodoptera littoralis
Eingetopfe Baumwollpflanzen im 5-Blatt-Stadium werden mit einer acetonisch/wässrigen Versuchslösung besprüht, die 3, 12,5 oder 50 ppm der zu prüfenden Verbindung enthält.
Nach dem Antrocknen des Belags werden die Pflanzen mit ca. 30 Larven (L₁-Stadium) von Spodoptera littoralis besetzt. Pro Versuchsverbindung und pro Test-Spezies verwendet man zwei Pflanzen. Der Versuch wird bei ca. 24°C und 60 % relativer Luftfeuchtigkeit durchgeführt Auswertungen und Zwischenauswertungen auf moribunde Tiere, Wachstum und Larven und Frasschäden erfolgen nach 24 Stunden, 48 Stunden und 72 Stunden.

Meloidogyne incognita = test: B-8 soil nematicidal action on tomato plants, root-knot index; assay type: in vivo; settings: 0,002 % active substance relative to soil volume, after 4 weeks; result in words
Experimental: B-8. Bodennematizide Wirkung gegen Meloidogyne incognita
Eier von Meloidogyne incognita werden in Sand eingemischt. Dieses Gemisch wird dann in 200 ml fassende Tontöpfe eingebracht (5000 Eier pro Topf). Am gleichen Tag wird pro Topf eine 3 Wochen alte Tomatenpflanze gepflanzt und der formulierte Wirkstoffe mittels Druckapplikation in die Töpfe hineingegeben (0,002 % Aktivsubstanz bezogen auf das Bodenvolumen). Die eingetopften Pflanzen werden nun bei einer Temperatur von 26±1°C und einer relativen Luftfeuchtigkeit von 60 % in einem Gewächshaus aufgestellt. Nach Ablauf von 4 Wochen erfolgt eine Evaluierung durch Untersuchung der Pflanzen auf Wurzelgallbildung nach dem sogenannten Wurzelgall-Index ("Knot Index").

Aphis craccivora = test: B-6 contact action on infested pea seedlings; assay type: in vivo; settings: for mortality at 25 ppm: Aphis craccivora, 72 h, read-out: Abtötung
Source text: B-6. Kontaktwirkung auf Aphis craccivora
Erbsenkeimlinge, die mit sämtlichen Entwicklungsstadien der Laus infiziert sind, werden mit einer aus einem Emulsionskonzentrat hergestellten Wirkstofflösung besprüht, die wahlweise 50 ppm, 25 ppm oder 12,5 ppm Wirkstoff enthält. Nach 3 Tagen wird auf mehr als 80 % tote bzw. abgefallene Blattläuse ausgewertet. Nur bei dieser Wirkungshöhe wird ein Präparat als wirksam eingestuft.

Row | SMILES | mortality at 100 ppm [1] [%] | Nematodenbefall (Reduktion der Wurmeier im Kot) [2] | Abtötung (Spodoptera littoralis) | further results
1 | CCc1ccccc1NC(=O)OC1C(C)=CCC2CC(CC3(CCC(C)C(CC)O3)O2)OC(=O)C2C=C(C)C(O)C3OCC(=CC=CC1C)C23O (stereo not drawn) [Beispiel E36, 13β-N-(2-Ethylphenyl)-carbamoyloxy-milbemycin A₄] | 100 | komplette Reduktion der Wurmeier im Kot | – | –
2 | CCC1OC2(CCC1C)CC1CC(CC=C(C)C(OC(=O)NC(C)C)C(C)C=CC=C3COC4C(O)C(C)=CC(C(=O)O1)C34O)O2 (stereo not drawn) [Beispiel E26, 13β-Isopropyl-carbamoyloxy-milbemycin A₄] | 100 | – | – | mortality at 10 ppm (Dermanyssus gallinae): 100%
3 | CCC1OC2(CCC1C)CC1CC(CC=C(C)C(OC(=O)Nc3ccccc3Br)C(C)C=CC=C3COC4C(O)C(C)=CC(C(=O)O1)C34O)O2 (stereo not drawn) [Beispiel E34, 13β-N-(2-Bromphenyl)-carbamoyloxy-milbemycin A₄] | 100 | komplette Reduktion der Wurmeier im Kot | – | –
4 | CC[C@H]1O[C@]2(CC[C@@H]1C)C[C@@H]1C[C@@H](C/C=C(\C)[C@H](OC(=O)Nc3ccc([N+](=O)[O-])cc3)[C@@H](C)/C=C/C=C3\CO[C@@H]4[C@H](O)C(C)=C[C@@H](C(=O)O1)[C@]34O)O2 [Beispiel E20, 13β-N-(4-Nitrophenyl)-carbamoyloxy-milbemycin A₄] | – | – | – | Abtötung [3]: vollständige Abtötung; Abtötung sämtlicher Larven (Aedes aegypti): vollständige Abtötung
5 | CC[C@H]1O[C@]2(CC[C@@H]1C)C[C@@H]1C[C@@H](C/C=C(\C)[C@H](OC(=O)NC(C)(C)C)[C@@H](C)/C=C/C=C3\CO[C@@H]4[C@H](O)C(C)=C[C@@H](C(=O)O1)[C@]34O)O2 [Beispiel E4, 13β-N-tert.-Butyl-carbamoyloxy-milbemycin A₄] | – | komplette Reduktion der Wurmeier im Kot | vollständige Abtötung | Abtötung sämtlicher Larven (Aedes aegypti): vollständige Abtötung
6 | CCNC(=O)O[C@H]1/C(C)=C/C[C@@H]2C[C@@H](C[C@]3(CC[C@H](C)[C@@H](CC)O3)O2)OC(=O)[C@@H]2C=C(C)[C@@H](O)[C@H]3OC/C(=C\C=C\[C@@H]1C)[C@]32O [Beispiel E18, 13β-N-Ethyl-carbamoyloxy-milbemycin A₄] | – | komplette Reduktion der Wurmeier im Kot | – | Wirksamkeit gegen Meloidogyne incognita (Reduktion der Wurzelgallbildung) (Meloidogyne incognita): besonders aktiv
7 | CCC1OC2(CCC1C)CC1CC(CC=C(C)C(OC(=O)Nc3ccc(Br)cc3)C(C)C=CC=C3COC4C(O)C(C)=CC(C(=O)O1)C34O)O2 (stereo not drawn) [Beispiel E14, 13β-N-(4-Bromphenyl)carbamoyloxy-milbemycin A₄] | 100 | komplette Reduktion der Wurmeier im Kot | vollständige Abtötung | mortality at 25 ppm (Aphis craccivora; 25 ppm, after 3 days): 100%; Abtötung sämtlicher Larven (Aedes aegypti): vollständige Abtötung
8 | CCC1OC2(CCC1C)CC1CC(CC=C(C)C(OC(=O)Nc3ccccc3C(F)(F)F)C(C)C=CC=C3COC4C(O)C(C)=CC(C(=O)O1)C34O)O2 (stereo not drawn) [Beispiel E22, 13β-N-(2-Trifluorphenyl)-carbamoyloxy-milbemycin A₄] | 100 | – | vollständige Abtötung | Abtötung [3]: vollständige Abtötung; mortality at 25 ppm (Aphis craccivora; 25 ppm, after 3 days): 100%; Abtötung sämtlicher Larven (Aedes aegypti): vollständige Abtötung
9 | CCC1OC2(CCC1C)CC1CC(CC=C(C)C(OC(=O)N(C(C)C)C(C)C)C(C)C=CC=C3COC4C(O)C(C)=CC(C(=O)O1)C34O)O2 (stereo not drawn) [Beispiel E8, 13β-N,N-Diisopropyl-carbamoyloxy-milbemycin A₄] | 100 | komplette Reduktion der Wurmeier im Kot | – | mortality at 10 ppm (Dermanyssus gallinae): 100%; mortality at 25 ppm (Aphis craccivora; 25 ppm, after 3 days): 100%; Abtötung sämtlicher Larven (Aedes aegypti): vollständige Abtötung
10 | CCC1OC2(CCC1C)CC1CC(CC=C(C)C(OC(=O)NC(C)c3ccccc3)C(C)C=CC=C3COC4C(O)C(C)=CC(C(=O)O1)C34O)O2 [Beispiel E30, 13β-N-((S)-1-Phenylethyl)-carbamoyloxy-milbemycin A₄] | 100 | – | – | –
11 | CCC1OC2(CCC1C)CC1CC(CC=C(C)C(OC(=O)NCc3ccccc3)C(C)C=CC=C3COC4C(O)C(C)=CC(C(=O)O1)C34O)O2 (stereo not drawn) [Beispiel E28, 13β-N-Benzyl-carbamoyloxy-milbemycin A₄] | 100 | – | – | –
12 | CCC1OC2(CCC1C)CC1CC(CC=C(C)C(OC(=O)Nc3ccccc3[N+](=O)[O-])C(C)C=CC=C3COC4C(O)C(C)=CC(C(=O)O1)C34O)O2 (stereo not shown) [Beispiel E38] | 100 | – | – | –
13 | CCC1OC2(CCC1C)CC1CC(CC=C(C)C(OC(=O)NC3CCCCC3)C(C)C=CC=C3COC4C(O)C(C)=CC(C(=O)O1)C34O)O2 (stereo not drawn) [Beispiel E12, 13β-N-Cyclohexylcarbamoyloxy-milbemycin A₄] | – | – | vollständige Abtötung | Abtötung (Aphis craccivora; 25 ppm, after 3 days): 100%
14 | CCC1OC2(CCC1C)CC1CC(CC=C(C)C(OC(=O)Nc3ccccc3)C(C)C=CC=C3COC4C(O)C(C)=CC(C(=O)O1)C34O)O2 (stereo not drawn) [Beispiel E6, 13β-N-Phenyl-carbamoyloxy-milbemycin A₄] | 100 | – | vollständige Abtötung | –
15 | CC[C@H]1O[C@]2(CC[C@@H]1C)C[C@@H]1C[C@@H](C/C=C(\C)[C@H](OC(=O)N(C)C)[C@@H](C)/C=C/C=C3\CO[C@@H]4[C@H](O)C(C)=C[C@@H](C(=O)O1)[C@]34O)O2 [Beispiel E16, 13β-N,N-Dimethyl-carbamoyloyx-milbemycin A₄] | – | – | vollständige Abtötung | Wirksamkeit gegen Meloidogyne incognita (Reduktion der Wurzelgallbildung) (Meloidogyne incognita): besonders aktiv
16 | CNC(=O)OC1C(C)=CCC2CC(CC3(CCC(C)C(C(C)C)O3)O2)OC(=O)C2C=C(C)C(O)C3OCC(=CC=CC1C)C23O (stereo not drawn) [Beispiel E10, 13β-N-Methylcarbamoyloxy-milbemycin D] | – | – | vollständige Abtötung | mortality at 10 ppm (Dermanyssus gallinae): 100%; mortality at 25 ppm (Aphis craccivora): 100%; Wirksamkeit gegen Meloidogyne incognita (Reduktion der Wurzelgallbildung) (Meloidogyne incognita): besonders aktiv
17 | CCC1OC2(CCC1C)CC1CC(CC=C(C)C(OC(=O)NC)C(C)C=CC=C3COC4C(O)C(C)=CC(C(=O)O1)C34O)O2 (stereo not drawn) [Beispiel E2, 13β-N-Methyl-carbamoyloxy-milbemycin A₄] | 100 | – | – | Wirksamkeit gegen Meloidogyne incognita (Reduktion der Wurzelgallbildung) (Meloidogyne incognita): besonders aktiv
